According to patent publication US12246036B2, “Composition for use in the prevention and in the treatment of iron deficiency” (PHARMANUTRA S.P.A., priority 2017, dated 2025):

Key:
[1] = Dilution test of iron compositions in sterile PBS and cell culture medium (dissolution properties); format: physicochemical; settings: for appearance after initial ten-fold dilution: 3 mg/ml of iron, PBS and medium; for appearance after further ten-fold dilution: 300 micrograms/ml of iron
Experimental: (§1) The iron content of the compounds (with the exception of the vitamin D and the sucrosomial matrix) was 30 mg/ml. A 1:100 dilution was performed for all of the compounds in sterile PBS in order to obtain an iron concentration of 300 micrograms/ml. […] The final iron concentration used in the experiments has been described elsewhere (Barisani et al. “Iron overload and gene expression in HepG2 cells: analysis by differential display” FEBS Letters 2000, 469, 208-212). The compounds (initial dilution of […]) were diluted in an incomplete FBS-free medium (RPMI 1640 for the U937 cells, EMEM for the HepG2 cells) with a dilution factor of 1:6 for a final iron concentration of 50 micrograms/ml. A test was conducted to assess the effect of the compounds on the cell cultures: induced FlepG2 and U937 were seeded a with a cell density of 650,000 cells/ml in 6 wells (final volume 1.5 ml/well). After 24 hours the medium was replaced with a new FBS-free (incomplete) one containing 50 µg/ml of iron and after 24 hours the cells were macroscopically checked (visual inspection using a microscope).
Before the cells were treated with the selected compounds, they were tested to assess their dissolution properties. The compounds were diluted in sterile PBS and in the standard cell culture medium (EMEM).

U937 cells = settings: 50 micrograms/ml of iron, 24 hours
Experimental: as §1

hepcidin = test: Hepcidin produced by LPS-stimulated HepG2 cells in supernatant (ELISA); format: cell-based, human; settings: LPS-stimulated HepG2, 18 hours of treatment; combination compared to vitamin D alone or sucrosomial iron alone (FIG. 2)
Experimental: The HepG2 cells were seeded in 6 wells at a concentration of 650,000 cells/ml (1.5 ml/well). The plates were incubated for 24 hours at 37° C. and 5% CO2 first. Afterwards, the 24-hour medium was replaced with an incomplete EMEM without FEM, containing 40 ng/ml of LPS. A control well was prepared with an LPS-FBS-free incomplete medium. After 20 hours of incubation at 37° C. and 5% CO2, the medium was replaced with the iron treatment solutions (medium containing 50 µg/ml of iron). In the control well, the medium was replaced by an incomplete FBS-free EMEM medium. Another control well without iron was prepared, replacing a container containing LPS with a fresh incomplete FBS-free medium. After 6, 18 and 24 ore, the hours, the supernatants were collected from the wells, centrifugated for 10 minutes at 1000 g, transferred into a new tube and stored a −20° C. for the analysis of hepcidin and CRP. The cells of each well collected were detached using trypsin and counted using Trypan blue with a Bürker counting chamber.

## O=P([O-])([O-])OP(=O)([O-])[O-].O=P([O-])([O-])OP(=O)([O-])[O-].O=P([O-])([O-])OP(=O)([O-])[O-].[Fe+3].[Fe+3].[Fe+3].[Fe+3] [iron pyrophosphate]
[1]
  appearance after initial ten-fold dilution: changed the colour (pH) of the medium from red to yellow
  appearance after further ten-fold dilution: no evident colour change

## O=S(=O)([O-])[O-].[Fe+2] [iron sulphate]
U937 cells
  effect on the cytoplasmic volume of the cells: loss of volume
[1]
  appearance after initial ten-fold dilution: changed the colour (pH) of the medium from red to yellow
  appearance after further ten-fold dilution: moderate colour change
[1]; compounds as supplied (30 mg/ml iron)
  appearance of the compounds before dilution in PBS / EMEM: separated in two phases

## vitamin D
[1]
  appearance after initial ten-fold dilution: no problems
hepcidin
  hepcidin level/expression in supernatants of HepG2 cells: higher
